From ChEMBL document CHEMBL1240332, “Mechanisms, biology and inhibitors of deubiquitinating enzymes” (Nat Chem Biol, 2007)

Assays:
[1] = target: T1, Ubiquitin carboxyl-terminal hydrolase isozyme L3 (Homo sapiens, UniProt P15374); test: Inhibition of UCHL3 in human H1299 cells; assay type: cell-based
T1 sequence (P15374 whole entry): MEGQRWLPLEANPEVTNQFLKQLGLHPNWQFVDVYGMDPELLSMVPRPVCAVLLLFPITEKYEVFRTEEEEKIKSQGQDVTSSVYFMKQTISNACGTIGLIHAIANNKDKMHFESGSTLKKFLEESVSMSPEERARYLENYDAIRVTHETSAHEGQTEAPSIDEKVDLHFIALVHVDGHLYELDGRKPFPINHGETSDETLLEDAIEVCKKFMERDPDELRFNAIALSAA

[2] = target: T2, Ubiquitin carboxyl-terminal hydrolase isozyme L1 (Homo sapiens, UniProt P09936); test: Inhibition of UCHL1 in human H1299 cells; assay type: cell-based
T2 sequence (P09936 whole entry): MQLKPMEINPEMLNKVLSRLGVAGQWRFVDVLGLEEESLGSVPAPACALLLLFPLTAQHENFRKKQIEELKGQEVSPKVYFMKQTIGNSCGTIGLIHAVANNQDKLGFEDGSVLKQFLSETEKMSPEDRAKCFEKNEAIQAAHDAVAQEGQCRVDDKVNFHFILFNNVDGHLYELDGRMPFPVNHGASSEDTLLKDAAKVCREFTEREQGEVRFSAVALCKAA

[3] = target: T3, Ubiquitin carboxyl-terminal hydrolase 5 (Homo sapiens, UniProt P45974); test: Inhibition of isopeptidase T
T3 sequence (P45974 whole entry): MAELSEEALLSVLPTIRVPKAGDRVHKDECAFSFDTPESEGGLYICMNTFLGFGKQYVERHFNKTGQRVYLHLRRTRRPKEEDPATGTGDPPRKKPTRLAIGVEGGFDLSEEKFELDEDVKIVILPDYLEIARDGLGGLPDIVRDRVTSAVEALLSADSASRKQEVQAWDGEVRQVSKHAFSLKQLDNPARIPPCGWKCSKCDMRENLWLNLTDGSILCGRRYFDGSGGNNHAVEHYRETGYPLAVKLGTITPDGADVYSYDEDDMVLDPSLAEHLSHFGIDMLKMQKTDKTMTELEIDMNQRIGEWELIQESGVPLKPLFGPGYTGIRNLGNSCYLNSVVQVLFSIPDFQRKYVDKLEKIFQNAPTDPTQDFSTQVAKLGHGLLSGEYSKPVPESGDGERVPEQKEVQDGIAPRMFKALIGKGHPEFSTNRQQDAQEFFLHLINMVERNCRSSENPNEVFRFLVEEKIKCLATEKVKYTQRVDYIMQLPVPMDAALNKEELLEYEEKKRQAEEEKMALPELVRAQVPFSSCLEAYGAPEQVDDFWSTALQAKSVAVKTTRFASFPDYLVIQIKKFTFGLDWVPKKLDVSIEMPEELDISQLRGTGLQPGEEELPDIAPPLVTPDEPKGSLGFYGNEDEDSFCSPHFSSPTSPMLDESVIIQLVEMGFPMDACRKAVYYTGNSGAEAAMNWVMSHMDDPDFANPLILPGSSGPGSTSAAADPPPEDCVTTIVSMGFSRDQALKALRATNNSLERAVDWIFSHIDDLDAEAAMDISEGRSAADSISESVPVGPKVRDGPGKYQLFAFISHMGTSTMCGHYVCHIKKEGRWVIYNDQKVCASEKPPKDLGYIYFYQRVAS

Caspase-3 = target: T4, Caspase-3 (Homo sapiens, UniProt P42574); test: Inhibition of caspase3
T4 sequence (P42574 whole entry): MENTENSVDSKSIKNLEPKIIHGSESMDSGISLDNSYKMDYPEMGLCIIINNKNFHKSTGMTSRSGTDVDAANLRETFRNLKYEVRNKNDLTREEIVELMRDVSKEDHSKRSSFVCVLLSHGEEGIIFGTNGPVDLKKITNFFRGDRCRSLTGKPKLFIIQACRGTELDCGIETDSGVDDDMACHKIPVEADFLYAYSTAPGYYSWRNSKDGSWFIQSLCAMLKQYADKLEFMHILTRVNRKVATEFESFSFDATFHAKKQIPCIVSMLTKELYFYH

[4] = target: T1, Ubiquitin carboxyl-terminal hydrolase isozyme L3; test: Inhibition of UCHL3
[5] = target: T5, Protein-glutamine gamma-glutamyltransferase (Homo sapiens, UniProt P21980); test: Inhibition of tissue transglutaminase
T5 sequence (P21980 whole entry): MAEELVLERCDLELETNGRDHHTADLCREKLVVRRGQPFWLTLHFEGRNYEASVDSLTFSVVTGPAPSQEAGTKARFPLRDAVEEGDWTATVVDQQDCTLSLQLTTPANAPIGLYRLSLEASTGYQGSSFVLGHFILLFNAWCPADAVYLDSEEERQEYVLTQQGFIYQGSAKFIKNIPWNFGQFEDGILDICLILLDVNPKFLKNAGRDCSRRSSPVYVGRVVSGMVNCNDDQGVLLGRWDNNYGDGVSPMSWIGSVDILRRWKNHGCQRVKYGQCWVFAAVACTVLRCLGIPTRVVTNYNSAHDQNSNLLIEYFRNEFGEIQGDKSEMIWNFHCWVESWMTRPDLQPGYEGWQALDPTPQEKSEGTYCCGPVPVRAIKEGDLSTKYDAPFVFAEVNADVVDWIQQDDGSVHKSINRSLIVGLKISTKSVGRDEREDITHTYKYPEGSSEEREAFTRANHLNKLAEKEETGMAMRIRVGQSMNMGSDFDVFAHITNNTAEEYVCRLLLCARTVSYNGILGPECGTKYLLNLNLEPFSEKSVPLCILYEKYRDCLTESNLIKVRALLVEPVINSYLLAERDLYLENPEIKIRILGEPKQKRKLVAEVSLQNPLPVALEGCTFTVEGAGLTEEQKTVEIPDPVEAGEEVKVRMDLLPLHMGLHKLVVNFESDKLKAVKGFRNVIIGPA

SMILES	IC50 [1] [µM]	IC50 [2] [µM]	Ki [3] [µM]	Ki (Caspase-3) [µM]	Ki [4] [µM]	Ki [5] [µM]
CCCCc1ccc(-c2n[nH]c(=S)n2-c2ccc(C(C)C)cc2)cc1	47	126	–	–	–	–
Nc1c(C(=O)c2ccccc2)sc2[nH]c(=O)c(C(=O)O)cc12	–	–	> 100	> 100	> 100	> 100
CC1=CC(=O)c2ccccc2C1=O [MENADIONE]	71	290	–	–	–	–

Continued by falling IC50 [1], values first:

IC50 [1] [µM]	IC50 [2] [µM]	Ki [3] [µM]	Ki (Caspase-3) [µM]	Ki [4] [µM]	Ki [5] [µM]	SMILES
25	0.88	–	–	–	–	CC(=O)O/N=C1/C(=O)N(Cc2cc(Cl)ccc2Cl)c2ccc(Br)cc21
23	0.94	–	–	–	–	CC(=O)O/N=C1/C(=O)N(Cc2ccc(Cl)c(Cl)c2)c2ccc(I)cc21
17	0.81	–	–	–	–	CC(=O)O/N=C1/C(=O)N(Cc2ccc(Cl)c(Cl)c2)c2ccc(Br)cc21
0.6	75	–	–	–	–	O=C1CC(=O)c2c(Cl)c(Cl)c(Cl)c(Cl)c21
